The values that follow come from US12128038B2, “Method of treatment of organic acidemias and other mitochondria defects or deficiencies” (University of Pittsburgh-Of the Commonwealth System of …, priority 2020, dated 2024).

Molecules are shown by their SMILES.

Holding throughout (format): cell-based, human
In experiment [1] the test system is cells from patients with inborn errors of energy metabolism. Kind of experiment: Cellular bioenergetics and reactive oxygen on incubation with antioxidants.
Experiment [2] concerns PA patient (859) fibroblasts. Briefly: Mitochondrial superoxide production by MitoSOX Red assay (flow cytometry). Conditions: PA cells, treatment for 24 h. As to the method: (§1) Cells Culture and Treatments: Fibroblast from a healthy control (826) and a PA patient (859) were grown in DMEM with glucose supplemented with 10% FBS, and 4 mM glutamine. Control and PA cells were treated either with JP4-039, CLP, or DMSO (vehicle control) for 24 h and then harvested for analysis.
Mitochondrial Superoxide production and Mitochondrial Mass: 150,000 Cells were incubated with MitoSOX Red (5 μM) and MitoTracker Green (150 nM) for 20 min at 37° C. and then analyzed by FACSAriall Flow cytometer.
FIG. 2. Superoxide levels detected by MitoSOX Red assay (A, B and C) and Mitochondrial mass detected by MitoTracker Green (D, E and F) in PA and healthy control cells with and without treatment for 24 h (A, B and C). Data shown here are means±SD and are normalized to WT mean value. ****P<0.0001, ***P<0.001, **P<0.01, *P<0.05 compared between the groups shown using unpaired t test for samples from a single biological replicate and minimum of at least three technical replicates.

Experiment [3] has as its system PA (859) fibroblast cell line. Kind of experiment: Mitochondrial respiration (oxygen consumption rate), Seahorse XFe96 Extracellular Flux Analyzer. Conditions: PA cells, treatment for 24 h, Seahorse OCR. As to the method: as §1
Measurement of Mitochondria Respiration: Oxygen consumption rate (OCR) was measured with a Seahorse XFe96 Extracellular Flux Analyzer, Seahorse Bioscience, Billerica, MA.
FIG. 3. Effect of JP4-039 and CLP on basal respiration of control (826) and PA (859) fibroblast cell line. Data shown here are means±SEM and are normalized to protein amount mean value. ****P<0.0001 and ***P<0.001 compared between the groups shown using unpaired t test for samples from a single biological replicate and 8 technical replicates.

On to `CC(C)C[C@@H](/C=C/[C@H](Cc1ccccc1)C(=O)N1CCC[C@H]1C(=O)N[C@H](C(=O)N[C@@H](CCCNC(=O)OCc1ccccc1)C(=O)NC1CC(C)(C)N([O])C(C)(C)C1)C(C)C)NC(=O)OC(C)(C)C` [XJB-5-131], for which, in experiment [1], the cellular bioenergetics result was “improve” and the reactive oxygen entry was “improve”.

Consider `O=C(O)CC(O)(CC(=O)O)C(=O)O` [citrate], for which, in experiment [2], the superoxide level result is “reduced”. Besides, in experiment [3], the basal respiration result was “reduced”.

As for `O=C(O)CCC(=O)O` [succinate], in experiment [2], the superoxide level result is listed as “reduced”. In experiment [3], the basal respiration result is “reduced”.
